Data published in patent publication US9732075B2, “Benzimidazole-proline derivatives” (IDORSIA PHARMACEUTICALS LTD, priority 2012, dated 2017).
pIC50: −log10 of the molar value.

Legend:
human orexin-1 receptor = human orexin-1 receptor (Homo sapiens (Human), UniProt O43613); assay: In vitro assay: intracellular calcium measurements (FLIPR), antagonistic activity; type: cell-based; settings: CHO cells expressing human orexin-1 receptor, orexin-A agonist, geometric mean, read-out: IC50 Ox1
Procedure, shortened: (§1)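 hOX1R/hOX2R CHO cells, fluo-4 AM + 5 mM probenecid, 50 min 37 °C then 30 min RT. Cpd 120 min, then orexin-A 3 nM final; FLIPR peak height vs vehicle. IC50, geometric mean of repeats.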

human orexin-2 receptor = human orexin-2 receptor (Homo sapiens (Human), UniProt O43614); assay: as above; type: cell-based; settings: CHO cells expressing human orexin-2 receptor, orexin-A agonist, geometric mean, read-out: IC50 Ox2
Procedure, shortened: as §1

Sequence of human orexin-1 receptor (O43613 whole entry): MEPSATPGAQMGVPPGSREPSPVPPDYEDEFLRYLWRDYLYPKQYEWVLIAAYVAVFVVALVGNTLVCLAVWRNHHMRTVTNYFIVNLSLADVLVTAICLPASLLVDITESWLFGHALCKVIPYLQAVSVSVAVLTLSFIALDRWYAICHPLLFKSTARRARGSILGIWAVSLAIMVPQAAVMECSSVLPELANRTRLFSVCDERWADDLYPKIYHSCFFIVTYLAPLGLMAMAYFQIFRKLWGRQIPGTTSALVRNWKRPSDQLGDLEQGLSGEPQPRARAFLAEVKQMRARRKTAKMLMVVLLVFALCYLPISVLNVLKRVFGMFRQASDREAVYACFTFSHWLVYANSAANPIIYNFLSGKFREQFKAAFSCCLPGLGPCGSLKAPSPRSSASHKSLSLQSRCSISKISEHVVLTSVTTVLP
Sequence of human orexin-2 receptor (O43614 whole entry): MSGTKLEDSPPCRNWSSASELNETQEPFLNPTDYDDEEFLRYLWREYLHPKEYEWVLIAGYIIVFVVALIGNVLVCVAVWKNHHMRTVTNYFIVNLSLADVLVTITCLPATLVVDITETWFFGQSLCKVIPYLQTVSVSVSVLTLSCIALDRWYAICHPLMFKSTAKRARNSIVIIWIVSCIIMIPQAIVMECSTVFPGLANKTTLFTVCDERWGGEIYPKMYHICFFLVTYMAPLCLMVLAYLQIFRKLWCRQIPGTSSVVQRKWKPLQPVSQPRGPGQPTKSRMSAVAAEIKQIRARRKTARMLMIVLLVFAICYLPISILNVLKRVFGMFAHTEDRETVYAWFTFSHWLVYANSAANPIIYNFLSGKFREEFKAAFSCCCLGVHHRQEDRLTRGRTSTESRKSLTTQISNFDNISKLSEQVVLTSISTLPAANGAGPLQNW

Row | Structure (SMILES) | pIC50 (human orexin-1 receptor) | pIC50 (human orexin-2 receptor)
1 | C=C1CN(C(=O)c2ccccc2-c2ccc(C)c(C)c2)C(C)(c2nc3cc(OC)ccc3[nH]2)C1 (centres unmarked) [Ex. 6.149] | 7.23 | 7.05
2 | C=C1CN(C(=O)c2ccccc2-c2ccccc2)C(C)(c2nc3cc(OC)ccc3[nH]2)C1 (centres unmarked) [Ex. 6.150] | 6.66 | 7.04
3 | C=C1CN(C(=O)c2nc(N(C)C)sc2-c2cccc(Cl)c2)C(C)(c2nc3cc(OC)ccc3[nH]2)C1 (centres unmarked) [Ex. 6.152] | 8.30 | 7.70
4 | C=C1CN(C(=O)c2nc(C)sc2-c2cccc(Cl)c2)C(C)(c2nc3cc(OC)ccc3[nH]2)C1 (centres unmarked) [Ex. 6.153] | 8.10 | 7.80
5 | C=C1CN(C(=O)c2ccccc2-n2nccn2)C(C)(c2nc3cc(OC)ccc3[nH]2)C1 (centres unmarked) [Ex. 6.155] | 6.19 | 6.98
6 | C=C1CN(C(=O)c2cc(C)ccc2-n2nccn2)C(C)(c2nc3cc(OC)ccc3[nH]2)C1 (centres unmarked) [Ex. 6.156] | 7.47 | 7.92
7 | C=C1CN(C(=O)c2cc(Cl)ccc2-n2nccn2)C(C)(c2nc3cc(OC)ccc3[nH]2)C1 (centres unmarked) [Ex. 6.157] | 7.15 | 7.68
8 | C=C1CN(C(=O)c2cc(OC)ccc2-n2nccn2)C(C)(c2nc3cc(OC)ccc3[nH]2)C1 (centres unmarked) [Ex. 6.158] | 7.24 | 7.46
9 | C=C1CN(C(=O)c2cc(C)c(C)cc2-n2nccn2)C(C)(c2nc3cc(OC)ccc3[nH]2)C1 (centres unmarked) [Ex. 6.159] | 7.96 | 8.00
10 | C=C1C[C@@H](c2nc3cc(C(C)(C)C)ccc3[nH]2)N(C(=O)c2cc(F)ccc2-n2nccn2)C1 [Ex. 6.160] | 6.49 | 8.10
11 | C=C1C[C@@H](c2nc3cc(C(C)(C)C)ccc3[nH]2)N(C(=O)c2cc(Cl)ccc2-n2nccn2)C1 [Ex. 6.161] | 7.29 | 8.52
12 | C=C1C[C@@H](c2nc3cc(C(C)(C)C)ccc3[nH]2)N(C(=O)c2ccccc2-n2nccn2)C1 [Ex. 6.162] | 6.48 | 8.15
13 | C=C1C[C@@H](c2nc3cc(C(C)(C)C)ccc3[nH]2)N(C(=O)c2c(-n3nccn3)ccc(OC)c2F)C1 [Ex. 6.163] | 6.59 | 7.14
14 | C=C1C[C@@H](c2nc3cc(C(C)(C)C)ccc3[nH]2)N(C(=O)c2c(-n3nccn3)ccc(C)c2F)C1 [Ex. 6.164] | 7.00 | 8.05
15 | C=C1C[C@@H](c2nc3cc(C(C)(C)C)ccc3[nH]2)N(C(=O)c2cc(C)c(C)cc2-n2nccn2)C1 [Ex. 6.165] | 8.05 | 8.52
16 | C=C1C[C@@H](c2nc3cc(C(C)(C)C)ccc3[nH]2)N(C(=O)c2ccc(C)cc2-n2nccn2)C1 [Ex. 6.166] | 7.48 | 8.40
17 | C=C1C[C@@H](c2nc3cc(C(C)(C)C)ccc3[nH]2)N(C(=O)c2c(C)cccc2-n2nccn2)C1 [Ex. 6.167] | 6.24 | 7.60
18 | C=C1C[C@@H](c2nc3cc(C(C)(C)C)ccc3[nH]2)N(C(=O)c2cc(C(F)(F)F)ccc2-n2nccn2)C1 [Ex. 6.168] | 6.58 | 7.27
19 | C=C1C[C@@H](c2nc3cc(C(C)(C)C)ccc3[nH]2)N(C(=O)c2cc(OC(F)(F)F)ccc2-n2nccn2)C1 [Ex. 6.169] | 6.46 | 6.32
20 | C=C1C[C@@H](c2nc3cc(C(C)(C)C)ccc3[nH]2)N(C(=O)c2cc(OC)c(OC)cc2-n2nccn2)C1 [Ex. 6.170] | 7.74 | 7.82

Row | Structure (SMILES) | pIC50 (human orexin-1 receptor) | pIC50 (human orexin-2 receptor)
21 | C=C1C[C@@H](c2nc3cc(C(C)(C)C)ccc3[nH]2)N(C(=O)c2cc(C)ccc2-n2cccn2)C1 [Ex. 6.171] | 6.79 | 7.72
22 | C=C1C[C@@H](c2nc3cc(C(C)(C)C)ccc3[nH]2)N(C(=O)c2ccccc2-n2cccn2)C1 [Ex. 6.172] | 5.90 | 7.17
23 | C=C1C[C@@H](c2nc3cc(C(C)(C)C)ccc3[nH]2)N(C(=O)c2nc(C)ccc2-n2cccn2)C1 [Ex. 6.173] | 6.07 | 7.19
24 | C=C1C[C@@H](c2nc3cc(C(C)(C)C)ccc3[nH]2)N(C(=O)c2nc(C)ccc2-n2nccn2)C1 [Ex. 6.174] | 6.63 | 7.82
25 | C=C1C[C@@H](c2nc3cc(Cl)c(C(F)(F)F)cc3[nH]2)N(C(=O)c2c(F)cccc2-n2nccn2)C1 [Ex. 6.175] | 7.11 | 7.72
26 | C=C1C[C@@H](c2nc3cc(Cl)c(C(F)(F)F)cc3[nH]2)N(C(=O)c2cc(F)ccc2-n2nccn2)C1 [Ex. 6.176] | 7.24 | 7.74
27 | C=C1C[C@@H](c2nc3cc(Cl)c(C(F)(F)F)cc3[nH]2)N(C(=O)c2cc(Cl)ccc2-n2nccn2)C1 [Ex. 6.177] | 7.89 | 8.22
28 | C=C1C[C@@H](c2nc3cc(Cl)c(C(F)(F)F)cc3[nH]2)N(C(=O)c2ccccc2-n2nccn2)C1 [Ex. 6.178] | 7.36 | 8.00
29 | C=C1C[C@@H](c2nc3cc(Cl)c(C(F)(F)F)cc3[nH]2)N(C(=O)c2c(-n3nccn3)ccc(OC)c2F)C1 [Ex. 6.179] | 8.22 | 8.15
30 | C=C1C[C@@H](c2nc3cc(Cl)c(C(F)(F)F)cc3[nH]2)N(C(=O)c2c(-n3nccn3)ccc(C)c2F)C1 [Ex. 6.180] | 8.30 | 8.40
31 | C=C1C[C@@H](c2nc3cc(Cl)c(C(F)(F)F)cc3[nH]2)N(C(=O)c2cc(C)c(C)cc2-n2nccn2)C1 [Ex. 6.181] | 8.70 | 8.70
32 | C=C1C[C@@H](c2nc3cc(Cl)c(C(F)(F)F)cc3[nH]2)N(C(=O)c2ccc(C)cc2-n2nccn2)C1 [Ex. 6.182] | 7.92 | 8.22
33 | C=C1C[C@@H](c2nc3cc(Cl)c(C(F)(F)F)cc3[nH]2)N(C(=O)c2c(C)cccc2-n2nccn2)C1 [Ex. 6.183] | 6.90 | 7.68
34 | C=C1C[C@@H](c2nc3cc(Cl)c(C(F)(F)F)cc3[nH]2)N(C(=O)c2cc(C(F)(F)F)ccc2-n2nccn2)C1 [Ex. 6.184] | 7.17 | 7.14
35 | C=C1C[C@@H](c2nc3cc(Cl)c(C(F)(F)F)cc3[nH]2)N(C(=O)c2cc(OC(F)(F)F)ccc2-n2nccn2)C1 [Ex. 6.185] | 6.62 | 6.99
36 | C=C1C[C@@H](c2nc3cc(Cl)c(C(F)(F)F)cc3[nH]2)N(C(=O)c2cc(OC)c(OC)cc2-n2nccn2)C1 [Ex. 6.186] | 7.57 | 8.22
37 | C=C1C[C@@H](c2nc3cc(Cl)c(C(F)(F)F)cc3[nH]2)N(C(=O)c2cc(C)ccc2-n2cccn2)C1 [Ex. 6.187] | 7.62 | 7.82
38 | C=C1C[C@@H](c2nc3cc(Cl)c(C(F)(F)F)cc3[nH]2)N(C(=O)c2ccccc2-n2cccn2)C1 [Ex. 6.188] | 6.94 | 7.18
39 | C=C1C[C@@H](c2nc3cc(Cl)c(C(F)(F)F)cc3[nH]2)N(C(=O)c2nc(C)ccc2-n2cccn2)C1 [Ex. 6.189] | 7.33 | 7.60
40 | C=C1C[C@@H](c2nc3cc(Cl)c(C(F)(F)F)cc3[nH]2)N(C(=O)c2nc(C)ccc2-n2nccn2)C1 [Ex. 6.190] | 8.00 | 8.05

Row | Structure (SMILES) | pIC50 (human orexin-1 receptor) | pIC50 (human orexin-2 receptor)
41 | C=C1C[C@@H](c2nc3cc(C)c(C)cc3[nH]2)N(C(=O)c2c(F)cccc2-n2nccn2)C1 [Ex. 6.191] | 6.87 | 8.15
42 | C=C1C[C@@H](c2nc3cc(C)c(C)cc3[nH]2)N(C(=O)c2cc(F)ccc2-n2nccn2)C1 [Ex. 6.192] | 7.32 | 8.15
43 | C=C1C[C@@H](c2nc3cc(C)c(C)cc3[nH]2)N(C(=O)c2cc(Cl)ccc2-n2nccn2)C1 [Ex. 6.193] | 7.39 | 8.40
44 | C=C1C[C@@H](c2nc3cc(C)c(C)cc3[nH]2)N(C(=O)c2ccccc2-n2nccn2)C1 [Ex. 6.194] | 7.29 | 8.30
45 | C=C1C[C@@H](c2nc3cc(C)c(C)cc3[nH]2)N(C(=O)c2c(-n3nccn3)ccc(OC)c2F)C1 [Ex. 6.195] | 7.37 | 7.96
46 | C=C1C[C@@H](c2nc3cc(C)c(C)cc3[nH]2)N(C(=O)c2c(-n3nccn3)ccc(C)c2F)C1 [Ex. 6.196] | 7.23 | 7.92
47 | C=C1C[C@@H](c2nc3cc(C)c(C)cc3[nH]2)N(C(=O)c2cc(C)c(C)cc2-n2nccn2)C1 [Ex. 6.197] | 8.22 | 8.70
48 | C=C1C[C@@H](c2nc3cc(C)c(C)cc3[nH]2)N(C(=O)c2ccc(C)cc2-n2nccn2)C1 [Ex. 6.198] | 7.92 | 8.52
49 | C=C1C[C@@H](c2nc3cc(C)c(C)cc3[nH]2)N(C(=O)c2c(C)cccc2-n2nccn2)C1 [Ex. 6.199] | 6.84 | 8.22
50 | C=C1C[C@@H](c2nc3cc(C)c(C)cc3[nH]2)N(C(=O)c2cc(OC)c(OC)cc2-n2nccn2)C1 [Ex. 6.200] | 7.24 | 8.00
51 | C=C1C[C@@H](c2nc3cc(C)c(C)cc3[nH]2)N(C(=O)c2cc(C)ccc2-n2cccn2)C1 [Ex. 6.201] | 6.83 | 7.60
52 | C=C1C[C@@H](c2nc3cc(C)c(C)cc3[nH]2)N(C(=O)c2nc(C)ccc2-n2nccn2)C1 [Ex. 6.202] | 7.05 | 7.89
53 | COc1ccc(-n2nccn2)c(C(=O)N2C[C@H](OC)C[C@H]2c2nc3ccc(Cl)c(C)c3n2C)c1 [Ex. 7.1] | 7.80 | 6.79
54 | C=C1C[C@@H](c2nc3cc(C)c(C)cc3n2C)N(C(=O)c2cc(C)ccc2-n2nccn2)C1 [Ex. 7.2] | 6.38 | 7.16
55 | Cc1ccc(-n2nccn2)c(C(=O)N2CCC[C@@]2(C)c2nc3c(C)c(Cl)ccc3n2C)c1 [Ex. 7.3] | 9.00 | 8.52
56 | Cc1nc(C(=O)N2CCC[C@@]2(C)c2nc3c(C)cccc3n2C)c(-c2cccc(Cl)c2)s1 [Ex. 7.5] | 8.05 | 8.70
57 | CCn1c([C@]2(C)CCCN2C(=O)c2nc(C)sc2-c2cccc(Cl)c2)nc2c(C)cccc21 [Ex. 7.6] | 8.30 | 8.22
58 | Cc1nc(C(=O)N2CCC[C@@]2(C)c2nc3c(C)c(Cl)ccc3n2C)c(-c2ccccc2)s1 [Ex. 7.7] | 8.70 | 8.52
